The source of these data is patent US20070042507A1, “Composite nanoparticles” (priority 2003, published 2007).

The nature of data set [1]: physchem.
Data set [2] in a line: n-octanol/water logD by prior art shake-flask method.
Data set [3] is described as follows: physchem. This is another data set of the same source.
The conditions of data set [4]: cited from earlier work; for LogD value from literature: n-octanol/water; for logD, Literature Value: pH = 7.4, AstraZeneca in-house data.
Data set [5] can be described thus: n-octanol/water logD with stock solution of n-octanol-charged nanoparticles (SC-CO2 delivery, example 10). As to conditions: pH 7.4.
Method: 30 μL n-octanol was then added into the holder 6 by the use of a micro-pipettor. The autoclave vessel and the sample holder (30 ml in total volume) were charged and flushed with CO2 by opening and closing the valves between the two compartments and external outlets for a few times before the vessels were brought up to the desired pressure (150 bar). The temperature of the autoclave and sample holder was maintained at 40° C., to allow the dispersion of the small quantity of n-octanol into the porous particles. After 2 hours, the high pressure of the system was released to atmosphere very slowly.
An appropriate amount of n-octanol was added to provide a thin n-octanol layer covering the water phase (density of n-octanol is lower than water). The funnel was shaken for 5 to 10 minutes to allow mixing of the n-octanol with water. The funnel was then covered by aluminium foil to protect the solvent mixture from light degradation and evaporation. The funnel was placed in an upright position for 3 days to allow separation of the two phases. The n-octanol phase saturated with water was then collected.
The particles containing nanocomposite were dispersed into 5 mL of this saturated buffer solution to obtain a homogeneous stock-solution with a concentration of 0.0038 mL n-octanol per mL of solution. Partition coefficient measurements were carried out as described below, using such a stock solution prepared in the same way.
After shaking the mixed system for half an hour, the magnetic nanocomposites were precipitated in a few minutes by an external magnet placed near the bottom of the reactor-tube. UV-visible spectrophotometry was used to determine the absorption of analyte at the aqueous phase both before and after partitioning.
For the partition coefficient determination, stock solutions were prepared with a suitable n-octanol/nanoparticle ratio. […]
UV-visible spectrometry was used to quantitatively determine the drug concentration in aqueous phase before and after partitioning. […]
The mark [6] stands for this setting: pH 7.4, LogD value measured by present invention (pH = 7.4), single measurements, water:n-octanol 100:1.
The mark [7] stands for this setting: pH 7.4, Mean logD value measured by present invention (pH = 7.4), mean of five, water:n-octanol 100:1.
The mark [8] stands for this setting: n-octanol/water, pH 7.4, LogD value measured (Prior art method) (pH = 7.4), single measurements, water:n-octanol 100:1.
Where [9] appears, read: n-octanol/water, pH 7.4, Mean logD value measured (Prior art method) (ph = 7.4), mean of five, water:n-octanol 100:1.
Setting [10] is: pH 7.4, logD, Magnetic nano-composite method, water/n-octanol 100, average of at least five, confidence level 95%.
Where [11] appears, read: single measurements, water:n-octanol 100:1.
The mark [12] stands for this setting: pH 7.4, LogD value measured (Prior art method) (pH = 7.4), single measurements, water:n-octanol 100:1.
The mark [13] stands for this setting: pH 7.4, Mean logD value measured (Prior art method) (ph = 7.4), mean of five, water:n-octanol 100:1.
Setting [14] is: n-octanol/water, pH 7.4, logD, Shake-Flask Method, water/n-octanol 100, average of at least five, confidence level 95%.

Structures are written as SMILES. Values joined by “and” are separate entries in the source; they are usually repeats but may differ in a detail not shown here. Identical values can stand only once. Like-named read-outs stand apart in the source and are kept apart here.

`COc1ccc([N+](=O)[O-])cc1` [4-Nitroanisole] had a logD under setting [6] of 2.01; a logD under setting [7] of 2.013 ± 0.012; a log distribution coefficient (logD) in the data set “physchem [1]” (pH 7.4, LogD value measured by present invention (pH = 7.4)) of 2.01; a log distribution coefficient (logD) in the data set “physchem [1]” (pH 7.4, logD, Magnetic nano-composite method) of 2.013 ± 0.012; a pH-dependent lipophilicity (logD) in data set [2] (setting [8]) of 2.01; a log distribution coefficient (logD) in data set [2] (setting [9]) of 2.01 ± 0.0077. Moreover, the logD is 2.02 in “physchem [3]” (pH 7.4, LogD value measured (Prior art method) (pH = 7.4)) and 2.01 ± 0.008 in the data set “physchem [3]” (pH 7.4, logD, Shake-Flask Method). For the same compound, the “LogD value measured by present invention (pH = 7.4)” value (single measurements, water:n-octanol 100:1, listed as 4-Nitroansiole) is 2.023 and 2.002.

In the case of `O=[N+]([O-])c1ccc(CO)cc1` [4-Nitrobenzyl alcohol], the “LogD value from literature” value in data set [4] is 1.260. The “logD, Literature Value” in data set [4] was 1.260. Moreover, the logD under setting [6] is 1.27, the logD under setting [7] stood at 1.27 ± 0.0381, the logD under setting [10] amounted to 1.27 ± 0.038 and the logD in data set [2] (setting [8]) was determined as 1.25. The “LogD value measured (Prior art method) (pH = 7.4)” value in data set [2] (setting [11]) is 1.264 and 1.244 and 1.256.

Take `O=[N+]([O-])c1ccc(O)cc1` [4-Nitrophenol]: the “LogD value from literature” value in data set [4] is recorded as 1.480. The “logD, Literature Value” in data set [4] was 1.480. This compound came in with a logD under setting [6] of 1.81; a logD under setting [7] of 1.807 ± 0.0052; a logD under setting [10] of 1.49 ± 0.021; a pH-dependent lipophilicity (logD) in data set [5] of 1.45 ± 0.026; a logD in data set [2] (setting [12]) of 1.77; a logD in data set [2] (setting [13]) of 1.78 ± 0.019. In data set [2] (pH 7.4, logD, Shake-Flask Method, water/n-octanol 100, average of at least five, confidence level 95%), this compound showed a logD of 1.486 ± 0.009. For the same compound, the “LogD value measured (Prior art method) (pH = 7.4)” value in data set [2] (setting [11]) is 1.779 and 1.811 and 1.780.

For the compound `Nc1ccccc1` [Aniline], the “LogD value from literature” value in data set [4] is given as 0.900. Besides, the log distribution coefficient (logD) under setting [6] stood at 0.963, the logD under setting [7] is 0.973 ± 0.0303, the logD in data set [2] (setting [12]) came to 0.936 and the logD in data set [2] (setting [13]) was found to be 0.934 ± 0.0094. Under setting [11], the “LogD value measured by present invention (pH = 7.4)” value is 0.990 and 0.935 and 0.989. In data set [2] (setting [11]), the “LogD value measured (Prior art method) (pH = 7.4)” value was 0.945 and 0.929 and 0.926 and 0.932.

In turn, `NC(=O)c1ccccc1` [Benzamide] had a logD under setting [6] of 0.0639.

In the case of `CN(C)CCCN1c2ccccc2Sc2ccc(Cl)cc21` [Chlorpromazine], in data set [4], the “LogD value from literature” value is given as 3.200. Further, in data set [4], the “logD, Literature Value” is given as 3.200. The compound also returned a pH-dependent lipophilicity (logD) under setting [6] of 3.14; a logD under setting [7] of 3.164 ± 0.0111; a pH-dependent lipophilicity (logD) under setting [10] of 3.164 ± 0.011; a logD in data set [5] of 3.17 ± 0.448; a log distribution coefficient (logD) in data set [2] (setting [8]) of 3.08; a log distribution coefficient (logD) in data set [2] (setting [9]) of 3.076 ± 0.0047. The logD in data set [2] (setting [14]) was determined as 3.076 ± 0.005. In addition, the “LogD value measured by present invention (pH = 7.4)” value under setting [11] was 3.179 and 3.186 and 3.124. Moreover, the “LogD value measured (Prior art method) (pH = 7.4)” value in data set [2] (setting [11]) is 3.074 and 3.083.

Take `c1ccc2ncccc2c1` [Quinoline]: the “LogD value from literature” value in data set [4] was 2.020. Besides, in data set [4], the “logD, Literature Value” is given as 2.020. Also, the logD under setting [6] worked out at 2.19; the pH-dependent lipophilicity (logD) under setting [7] was determined as 2.186 ± 0.0044; the logD under setting [10] was found to be 2.186 ± 0.004; the log distribution coefficient (logD) in data set [5] worked out at 2.08 ± 0.073; the logD in data set [2] (setting [8]) is 2.12; the logD in data set [2] (setting [9]) was 2.116 ± 0.0039. For the same compound, the pH-dependent lipophilicity (logD) in data set [2] (setting [14]) is 2.116 ± 0.004. For the same compound, the “LogD value measured (Prior art method) (pH = 7.4)” value in data set [2] (setting [11]) was 2.115 and 2.113 and 2.121 and 2.114.
